{
  "source": "paper PMC4980604",
  "about": "(Scientific Reports, 2016)",
  "molecular_target": "T1, P-glycoprotein (P-gp) (Homo sapiens, UniProt P08183)",
  "T1 construct": "gene ABCB1; P-gp membranes (Pgp-Glo assay system)",
  "T1 sequence (P08183 whole entry)": "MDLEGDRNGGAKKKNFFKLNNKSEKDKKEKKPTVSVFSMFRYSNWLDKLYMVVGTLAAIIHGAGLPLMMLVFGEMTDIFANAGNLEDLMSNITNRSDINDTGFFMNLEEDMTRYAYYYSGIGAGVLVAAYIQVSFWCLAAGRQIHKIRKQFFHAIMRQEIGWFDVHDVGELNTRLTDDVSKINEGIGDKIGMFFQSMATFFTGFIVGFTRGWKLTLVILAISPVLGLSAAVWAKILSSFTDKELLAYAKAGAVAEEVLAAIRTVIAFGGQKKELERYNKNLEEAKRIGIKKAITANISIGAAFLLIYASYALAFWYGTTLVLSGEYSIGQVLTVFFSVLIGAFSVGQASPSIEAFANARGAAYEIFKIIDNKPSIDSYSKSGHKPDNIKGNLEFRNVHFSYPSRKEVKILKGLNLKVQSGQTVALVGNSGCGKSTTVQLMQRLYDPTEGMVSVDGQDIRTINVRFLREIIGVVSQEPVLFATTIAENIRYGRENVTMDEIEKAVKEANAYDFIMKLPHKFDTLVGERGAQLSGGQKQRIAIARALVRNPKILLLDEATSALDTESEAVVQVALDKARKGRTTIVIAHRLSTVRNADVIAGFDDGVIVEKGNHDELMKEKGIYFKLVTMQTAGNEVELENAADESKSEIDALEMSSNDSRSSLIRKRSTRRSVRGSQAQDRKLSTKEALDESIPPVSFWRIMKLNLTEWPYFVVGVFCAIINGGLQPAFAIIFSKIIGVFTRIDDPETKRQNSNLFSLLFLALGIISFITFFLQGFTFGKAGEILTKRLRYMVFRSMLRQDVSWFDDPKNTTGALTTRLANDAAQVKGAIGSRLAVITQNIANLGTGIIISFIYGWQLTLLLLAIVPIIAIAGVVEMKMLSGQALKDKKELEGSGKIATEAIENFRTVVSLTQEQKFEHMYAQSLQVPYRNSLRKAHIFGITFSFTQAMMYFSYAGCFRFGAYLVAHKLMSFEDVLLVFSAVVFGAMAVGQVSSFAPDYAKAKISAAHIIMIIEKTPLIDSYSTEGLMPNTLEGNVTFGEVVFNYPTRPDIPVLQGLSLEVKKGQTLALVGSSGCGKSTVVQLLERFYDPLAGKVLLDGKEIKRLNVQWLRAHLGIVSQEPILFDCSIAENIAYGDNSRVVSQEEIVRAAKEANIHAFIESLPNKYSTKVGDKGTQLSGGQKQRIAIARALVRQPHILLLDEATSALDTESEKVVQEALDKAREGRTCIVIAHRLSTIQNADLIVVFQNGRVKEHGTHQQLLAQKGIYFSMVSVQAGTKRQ",
  "test": "Pgp-Glo ATPase stimulation at […] (membranes)",
  "format": "biochemical",
  "data": [
    {"compound": "CC[C@]1(O)C[C@H]2CN(CCc3c([nH]c4ccccc34)[C@@](C(=O)OC)(c3cc4c(cc3OC)N(C=O)[C@H]3[C@@](O)(C(=O)OC)[C@H](OC(C)=O)[C@]5(CC)C=CCN6CC[C@]43[C@@H]65)C2)C1", "note": "[vincristine]", "values": [
      {"measurement": "Pgp-Glo ATPase stimulation at 2 μM (membranes)", "result": "verapamil and vincristine induced an obvious increase in activity of P-gp ATPase"}
    ]}
  ]
}
